Measured values as given in patent US9242933B2 (AbbVie Deutschland GmbH & Co. KG, priority 2007, dated 2016).

molecular target: T1, human mGlu2 receptor (Homo sapiens, UniProt Q14416); assay: FLIPR intracellular Ca2+ assay, potentiation of glutamate response in HEK293 clone expressing mGlu2 receptor, rGLAST and Galpha16; type: cell-based; conditions: 1 μM glutamate added ten minutes after test compound, HEK293 cells with human mGlu2, rGLAST, Galpha16, read-out: EC50 values of potentiation effect to glutamate
T1 construct: expressed in transfected cells; host or cells: HEK293
T1 sequence (Q14416 19-872): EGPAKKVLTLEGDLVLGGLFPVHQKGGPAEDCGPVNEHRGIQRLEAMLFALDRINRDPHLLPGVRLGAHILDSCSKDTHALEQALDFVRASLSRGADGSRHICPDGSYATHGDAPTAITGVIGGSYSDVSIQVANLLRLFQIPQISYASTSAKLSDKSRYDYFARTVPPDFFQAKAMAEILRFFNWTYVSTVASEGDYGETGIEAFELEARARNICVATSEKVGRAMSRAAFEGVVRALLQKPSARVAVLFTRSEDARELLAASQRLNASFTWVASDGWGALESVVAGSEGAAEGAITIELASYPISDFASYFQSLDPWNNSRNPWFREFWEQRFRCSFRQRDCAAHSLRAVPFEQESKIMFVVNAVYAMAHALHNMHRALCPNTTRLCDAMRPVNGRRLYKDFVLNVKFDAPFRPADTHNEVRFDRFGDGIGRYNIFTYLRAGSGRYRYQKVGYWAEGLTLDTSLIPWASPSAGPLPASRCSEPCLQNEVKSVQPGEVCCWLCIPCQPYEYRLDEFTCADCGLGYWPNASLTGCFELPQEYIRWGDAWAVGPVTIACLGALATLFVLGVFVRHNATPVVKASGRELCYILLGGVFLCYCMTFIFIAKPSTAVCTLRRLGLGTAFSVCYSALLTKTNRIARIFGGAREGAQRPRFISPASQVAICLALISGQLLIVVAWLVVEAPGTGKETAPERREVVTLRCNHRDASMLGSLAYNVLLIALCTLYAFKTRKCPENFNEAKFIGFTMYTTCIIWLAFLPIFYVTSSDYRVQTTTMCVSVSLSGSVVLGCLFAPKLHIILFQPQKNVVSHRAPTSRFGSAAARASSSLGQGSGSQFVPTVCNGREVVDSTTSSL
From the text: The compounds of the present invention can be tested e.g. by evaluating intracellular Ca^2+ concentrations in cells permanently expressing human mGlu receptor, the rat glutamate transporter rGLAST and the Galpha16 subunit of the G-protein complex under standard conditions in a fluorometric imaging plate reader (FLIPR, Molecular Devices, Union City, Calif. 94587, USA) by measuring the response of the cells to a test compound in the absence of presence of glutamate. The FLIPR assay is a common functional assay to monitor native or recombinant Galphaq-coupled receptors, and native or recombinant receptors normally linked to other G-protein signalling cascades, which are coupled to calcium through co-expression of an alpha subunit of a promiscuous or chimeric G-protein. In the assay the increase of intracellular calcium is measured through a calcium-dependent fluorescent dye (e.g. Fluo-4 AM) in the FLIPR instrument.
For the purpose of the present study, a cell line permanently expressing a human mGlu receptor, such as the mGlu2 receptor, the rat glutamate transporter rGLAST and the GalphaG16 may be generated by transfection as described in the examples. For selection of a suitable cell clone and also the subsequent measurements, the selected clone the cells will be plated on suitable multiwell plates in a suitable medium (e.g. DMEM Glutamax (GIBCO #21885-025)/10% dialyzed FCS). Cells may be selected by gentamycin treatment as described in the examples. Cells will then be loaded with a suitable Ca^2+ sensitive fluorescence dye, e.g. with 2 μM Fluo-4 AM (Molecular Probes, F14201). Cells will then be washed with a suitable buffer (e.g. HEPES) and the thus treated plates will be measured in a fluorometric imaging plate reader (e.g. FLIPR, Molecular Devices, Union City, Calif. 94587, USA).
The compounds of the present invention were tested in the above-described FLIPR assay using the selected cell clone. Increased intracellular calcium levels were quantified following addition of test compound (agonism), as well as following addition of a submaximal concentration of glutamate (potentiation).
For the determination of the effect of the test compound by itself (agonism) or by increasing the response to a submaximal concentration (e.g. 1 μM) of glutamate (potentiation), the resulting signal is determined by subtraction of the background fluorescence from the maximal fluorescent peak height of the respective response. In the FLIPR instrument the compound is given to the cell and its fluorescence response quantified by the FLIPR instrument (agonism). The concentration at which the compound exerts half its maximal effect is named the ‘effective concentration 50’ or ‘EC50’. The maximal effect induced by the test substance is normalized to the maximal effect exerted by 100 μM glutamate (set at 100%).
After addition of the test compound to the plate, a submaximal concentration of glutamate (e.g. 1 μM glutamate) will be added. A potentiator enhances the response of the receptor to glutamate. The response to glutamate in the presence of test compound is quantified. The concentration at which the test compound is able to exert half its maximal potentiation effect to glutamate is named the ‘EC50’. The maximal response to the submaximal concentration of glutamate (e.g. 1 micromolar glutamate) in the presence of test compound is normalized to the maximal effect exerted by 100 micromolar glutamate (set at 100%). Least squares curve fitting with a four-parameter equation is then applied to the resulting dose-response curve to determine the resulting EC5O values (Graph Pad Prism).
For the purpose of the present study, a cell line permanently expressing the human mGlu2 receptor, the rat glutamate transporter rGLAST and the alpha subunit of G16 was generated by transfection. […]

**Q.** For `FC(F)(F)c1ccc(-c2n[nH]cc2CNc2ccc(Cl)cn2)cc1` [Example 340, (5-Chloro-pyridin-2-yl)-[3-(4-trifluoromethyl-phenyl)-1H-pyrazol-4-ylmethyl]-amine], which EC50 is on record?
**A.** Its EC50 is 1000 to 10000 nM.

**Q.** How did the EC50 turn out when `Cc1cc(C)nc(NCc2c[nH]nc2-c2ccc(C(F)(F)F)cc2)c1` [Example 341, (4,6-Dimethyl-pyridin-2-yl)-[3-(4-trifluoromethyl-phenyl)-1H-pyrazol-4-ylmethyl]-amine] was run?
**A.** Its EC50 is 1000 to 10000 nM.

**Q.** How did the EC50 turn out when `FC(F)(F)c1ccc(-c2n[nH]cc2CNc2cccc(Cl)n2)cc1` [Example 349, (6-Chloro-pyridin-2-yl)-[3-(4-trifluoromethyl-phenyl)-1H-pyrazol-4-ylmethyl]-amine] was run?
**A.** Its EC50 is 1000 to 10000 nM.

**Q.** Which EC50 does the source give for `COc1ccc(NCc2c[nH]nc2-c2ccc(C(F)(F)F)cc2)c(OC)n1` [Example 351, (2,6-Dimethoxy-pyridin-3-yl)-[3-(4-trifluoromethyl-phenyl)-1H-pyrazol-4-ylmethyl]-amine] here?
**A.** The EC50 was 1000 to 10000 nM.

**Q.** How did the EC50 turn out when `CC(=O)c1sccc1NCc1c[nH]nc1-c1ccc(C(F)(F)F)cc1` [Example 355, 1-(3-{[3-(4-Trifluoromethyl-phenyl)-1H-pyrazol-4-ylmethyl]-amino}-thiophen-2-yl)-ethanone] was run?
**A.** Its EC50 is 1000 to 10000 nM.

**Q.** With `Cc1ccc(NCc2c[nH]nc2-c2ccc(C(F)(F)F)cc2)nc1C` [Example 363, (5,6-Dimethyl-pyridin-2-yl)-[3-(4-trifluoromethyl-phenyl)-1H-pyrazol-4-ylmethyl]-amine] as the compound, how does the EC50 read?
**A.** Its EC50 is 1000 to 10000 nM.

**Q.** How did the EC50 turn out when `CCCC(=O)c1ccc(NCc2cn(C)nc2-c2ccc(C(F)(F)F)cc2)cc1` [Example 374, 1-(4-{[1-Methyl-3-(4-trifluoromethyl-phenyl)-1H-pyrazol-4-ylmethyl]-amino}-phenyl)-butan-1-one] was run?
**A.** Its EC50 is less than 1000 nM.

**Q.** How did the EC50 turn out when `CCCC(=O)c1ccc(NCc2cnn(C)c2-c2ccc(C(F)(F)F)cc2)cc1` [Example 375, 1-(4-{[1-Methyl-5-(4-trifluoromethyl-phenyl)-1H-pyrazol-4-ylmethyl]-amino}-phenyl)-butan-1-one] was run?
**A.** The EC50 was less than 1000 nM.

**Q.** How did the EC50 turn out when `CCC(C)Oc1cccc(NCc2c[nH]nc2-c2ccc(C(F)(F)F)cc2)c1` (stereo not shown) [Example 378, (3-sec-Butoxy-phenyl)-[3-(4-trifluoromethyl-phenyl)-1H-pyrazol-4-ylmethyl]-amine] was run?
**A.** Its EC50 is 1000 to 10000 nM.

**Q.** Which EC50 does the source give for `CCCC(C)Oc1cccc(NCc2c[nH]nc2-c2ccc(C(F)(F)F)cc2)c1` (stereo not shown) [Example 379, [3-(1-Methyl-butoxy)-phenyl]-[3-(4-trifluoromethyl-phenyl)-1H-pyrazol-4-ylmethyl]-amine] here?
**A.** The EC50 was 1000 to 10000 nM.

**Q.** With `CCC(CC)Oc1cccc(NCc2c[nH]nc2-c2ccc(C(F)(F)F)cc2)c1` [Example 380, [3-(1-Ethyl-propoxy)-phenyl]-[3-(4-trifluoromethyl-phenyl)-1H-pyrazol-4-ylmethyl]-amine] as the compound, how does the EC50 read?
**A.** The EC50 was 1000 to 10000 nM.

**Q.** `CCCC(=O)c1ccc(N(Cc2cccnc2)S(=O)(=O)CC(F)(F)F)cc1` [Example 383, 2,2,2-Trifluoro-ethanesulfonic acid (4-butyryl-phenyl)-pyridin-3-ylmethyl-amide] was tested. Which EC50 did it give?
**A.** Its EC50 is 1000 to 10000 nM.

**Q.** For `CN(C)c1ccc(N(Cc2cccnc2)S(=O)(=O)CC(F)(F)F)cc1` [Example 385, 2,2,2-Trifluoro-ethanesulfonic acid (4-dimethylamino-phenyl)-pyridin-3-ylmethyl-amide], which EC50 is on record?
**A.** The EC50 was 1000 to 10000 nM.

**Q.** `CCCC(=O)c1cccc(NCc2cccnc2)c1` [Example 386, 1-{3-[(Pyridin-3-ylmethyl)-amino]-phenyl}-butan-1-one] was tested. Which EC50 did it give?
**A.** The EC50 was 1000 to 10000 nM.

**Q.** Which EC50 does the source give for `CCCC(=O)c1ccc(NCc2ccc(N(C)C)nc2)cc1` [Example 387, 1-{4-[(6-Dimethylamino-pyridin-3-ylmethyl)-amino]-phenyl}-butan-1-one] here?
**A.** The EC50 was 1000 to 10000 nM.

**Q.** Which EC50 does the source give for `CN(C)c1cccc(N(Cc2cccnc2)S(=O)(=O)CC(F)(F)F)c1` [Example 389, 2,2,2-Trifluoro-ethanesulfonic acid (3-dimethylamino-phenyl)-pyridin-3-ylmethyl-amide] here?
**A.** Its EC50 is 1000 to 10000 nM.

**Q.** How did the EC50 turn out when `CCCC(=O)c1cccc(N(Cc2cccnc2)S(=O)(=O)CC(F)(F)F)c1` [Example 390, 2,2,2-Trifluoro-ethanesulfonic acid (3-butyryl-phenyl)-pyridin-3-ylmethyl-amide] was run?
**A.** Its EC50 is less than 1000 nM.

**Q.** With `CCCC(=O)c1ccc(N(Cc2ccc(N(C)C)nc2)S(=O)(=O)CC(F)(F)F)cc1` [Example 391, 2,2,2-Trifluoro-ethanesulfonic acid (4-butyryl-phenyl)-(6-dimethylamino-pyridin-3-ylmethyl)-amide] as the compound, how does the EC50 read?
**A.** Its EC50 is 1000 to 10000 nM.

**Q.** With `CCCC(=O)c1cccc(N(C)Cc2c[nH]nc2-c2ccc(C(F)(F)F)cc2)c1` [Example 392, 1-(3-{Methyl-[3-(4-trifluoromethyl-phenyl)-1H-pyrazol-4-ylmethyl]-amino}-phenyl)-butan-1-one] as the compound, how does the EC50 read?
**A.** Its EC50 is 1000 to 10000 nM.

**Q.** How did the EC50 turn out when `CS(=O)(=O)c1ccc(NCc2c[nH]nc2-c2ccc(C(F)(F)F)cc2)cc1` [Example 399, (4-Methanesulfonyl-phenyl)-[3-(4-trifluoromethyl-phenyl)-1H-pyrazol-4-ylmethyl]-amine] was run?
**A.** Its EC50 is 1000 to 10000 nM.

**Q.** For `Cc1cc(=O)c2ccc(NCc3c[nH]nc3-c3ccc(C(F)(F)F)cc3)cc2o1` [Example 400, 2-Methyl-7-{[3-(4-trifluoromethyl-phenyl)-1H-pyrazol-4-ylmethyl]-amino}-chromen-4-one], which EC50 is on record?
**A.** The EC50 was 1000 to 10000 nM.

**Q.** How did the EC50 turn out when `CCCC(=O)c1ccc(NCc2c[nH]nc2-c2cccc(C(F)(F)F)c2)cc1` [Example 416, 1-(4-{[3-(3-Trifluoromethyl-phenyl)-1H-pyrazol-4-ylmethyl]-amino}-phenyl)-butan-1-one] was run?
**A.** Its EC50 is 1000 to 10000 nM.

**Q.** With `CCCC(=O)c1ccc(OCCCCOc2cccnc2)cc1` [Example 423, 1-{4-[4-(Pyridin-3-yloxy)-butoxy]-phenyl}-butan-1-one] as the compound, how does the EC50 read?
**A.** Its EC50 is 1000 to 10000 nM.

**Q.** With `CN(C)S(=O)(=O)c1cccc(NCc2c[nH]nc2-c2ccc(Cl)cc2)c1` [Example 430, 3-{[3-(4-Chloro-phenyl)-1H-pyrazol-4-ylmethyl]-amino}-N,N-dimethyl-benzenesulfonamide] as the compound, how does the EC50 read?
**A.** The EC50 was 1000 to 10000 nM.

**Q.** For `CN(C)C(=O)c1ccc(NCc2c[nH]nc2-c2cccc(C(F)(F)F)c2)cc1` [Example 433, N,N-Dimethyl-4-{[3-(3-trifluoromethyl-phenyl)-1H-pyrazol-4-ylmethyl]-amino}-benzamide], which EC50 is on record?
**A.** The EC50 was 1000 to 10000 nM.

**Q.** Which EC50 does the source give for `CCCC(=O)c1ccc(NCc2c[nH]nc2-c2cccc(C(F)(F)F)c2)cc1OC` [Example 434, 1-(2-Methoxy-4-{[3-(3-trifluoromethyl-phenyl)-1H-pyrazol-4-ylmethyl]-amino}-phenyl)-butan-1-one] here?
**A.** The EC50 was less than 1000 nM.

**Q.** How did the EC50 turn out when `CCCc1c(NCc2c[nH]nc2-c2cccc(C(F)(F)F)c2)ccc(C(C)=O)c1O` [Example 436, 1-(2-Hydroxy-3-propyl-4-{[3-(3-trifluoromethyl-phenyl)-1H-pyrazol-4-ylmethyl]-amino}-phenyl)-ethanone] was run?
**A.** The EC50 was 1000 to 10000 nM.

**Q.** `CCCC(=O)c1ccc(NCc2c[nH]nc2-c2ccc(Cl)cc2)cc1OC(CC)CC` [Example 437, 1-[4-{[3-(4-Chloro-phenyl)-1H-pyrazol-4-ylmethyl]-amino}-2-(1-ethyl-propoxy)-phenyl]-butan-1-one] was tested. Which EC50 did it give?
**A.** Its EC50 is 1000 to 10000 nM.

**Q.** Which EC50 does the source give for `CC(=O)c1ccc(NCc2c[nH]nc2-c2ccc(Cl)cc2)c(C)c1O` [Example 440, 1-(4-{[3-(4-Chloro-phenyl)-1H-pyrazol-4-ylmethyl]-amino}-2-hydroxy-3-methyl-phenyl)-ethanone] here?
**A.** The EC50 was less than 1000 nM.

**Q.** Which EC50 does the source give for `O=C(c1ccc(OCc2c[nH]nc2-c2cccc(C(F)(F)F)c2)cc1)C1CCCC1` [Example 442, Cyclopentyl-{4-[3-(3-trifluoromethyl-phenyl)-1H-pyrazol-4-ylmethoxy]-phenyl}-methanone] here?
**A.** The EC50 was less than 1000 nM.

**Q.** `COC(=O)c1ccc(NCc2c[nH]nc2-c2ccc(Cl)cc2)cc1` [Example 443, 4-{[3-(4-Chloro-phenyl)-1H-pyrazol-4-ylmethyl]-amino}-benzoic acid methyl ester] was tested. Which EC50 did it give?
**A.** The EC50 was 1000 to 10000 nM.
